Calls of active or inactive are those of the source. The rule behind the calls is not given here.
Assays:
[1] = target: Centromere-associated protein E (Homo sapiens) (UniProt Q02224); assay: Uncompetitive-like binding affinity to C-terminal 6-his-tagged CENP-E (2 to 340 residues)(unknown origin) expressed in Escherichia coli BL21(DE3) in presence of ATP
HCC1954 [2] = assay: Induction of morphological change in human HCC1954 cells expressing GFP-histone 2B assessed as bipolar spindle formation of chromosomes at 0.2 ug/ml measured for 5 days on every 15 mins by PI staining based analysis; type: functional, cell-based; conditions: dose 0.2 µg/ml, time 5.0 day
[3] = target: Centromere-associated protein E (Homo sapiens) (UniProt Q02224); assay: Inhibition of CENP-E motor domain ATPase in human HCC1954 cells assessed as increase in 4n DNA content at 325 nM measured for 144 hrs by flow cytometry; type: cell-based
[4] = target: Centromere-associated protein E (Homo sapiens) (UniProt Q02224); assay: Inhibition of CENP-E motor domain ATPase in human HCC1954 cells assessed as increase in cyclin B level by Western blot analysis; type: cell-based
[5] = target: Centromere-associated protein E (Homo sapiens) (UniProt Q02224); assay: Inhibition of CENP-E motor domain ATPase in human HCC1954 cells assessed as increase in Ser10 phosphorylated histone H3 level by Western blot analysis; type: cell-based
HCC1954 [6] = assay: Induction of apoptosis in human HCC1954 cells assessed as increase in PARP cleavage measured for 145 hrs by Western blot analysis; type: functional, cell-based
SK-OV-3 = assay: Induction of morphological change in human SK-OV-3 cells assessed as increase in mitotic cells with bipolar spindle formation of chromosomes at 50 nM measured for 24 to 32 hrs by microscopic analysis; type: functional, cell-based; conditions: time 24-32 hrs
[7] = target: Centromere-associated protein E (Homo sapiens) (UniProt Q02224); assay: Inhibition of CENP-E motor domain ATPase in human HCC1954 cells expressing GFP-histone 2B assessed as increase in mitotic index at 0.2 ug/ml measured for 5 days on every 15 mins by PI staining based analysis; type: cell-based; conditions: dose 0.2 µg/ml, time 5.0 day
[8] = tested on: CC(C)Oc1ccc(C(=O)N[C@H](CNC(=O)CN(C)C)Cc2ccc(-c3cn4cccc([C@H](C)O)c4n3)cc2)cc1Cl; conditions: Mus musculus
Description: Binding affinity to wild-type mouse CENP-E assessed as catalytic constant

[9] = tested on: CC(C)Oc1ccc(C(=O)N[C@H](CNC(=O)CN(C)C)Cc2ccc(-c3cn4cccc([C@H](C)O)c4n3)cc2)cc1Cl; conditions: Mus musculus; remark: listed apart in the source
Description: Binding affinity to wild-type mouse CENP-E assessed as Km in presence of microtubule

[10] = tested on: CC(C)Oc1ccc(C(=O)N[C@H](CNC(=O)CN(C)C)Cc2ccc(-c3cn4cccc([C@H](C)O)c4n3)cc2)cc1Cl; conditions: Mus musculus; remark: listed apart in the source
Description: Binding affinity to wild-type mouse CENP-E assessed as Km in presence of ATP

[11] = tested on: CC(C)Oc1ccc(C(=O)N[C@H](CNC(=O)CN(C)C)Cc2ccc(-c3cn4cccc([C@H](C)O)c4n3)cc2)cc1Cl; conditions: Canis lupus familiaris
Description: Binding affinity to wild-type dog CENP-E assessed as catalytic constant

[12] = tested on: CC(C)Oc1ccc(C(=O)N[C@H](CNC(=O)CN(C)C)Cc2ccc(-c3cn4cccc([C@H](C)O)c4n3)cc2)cc1Cl; conditions: Canis lupus familiaris; remark: listed apart in the source
Description: Binding affinity to wild-type dog CENP-E assessed as Km in presence of microtubule

[13] = tested on: CC(C)Oc1ccc(C(=O)N[C@H](CNC(=O)CN(C)C)Cc2ccc(-c3cn4cccc([C@H](C)O)c4n3)cc2)cc1Cl; conditions: Canis lupus familiaris; remark: listed apart in the source
Description: Binding affinity to wild-type dog CENP-E assessed as Km in presence of ATP

[14] = target: Centromere protein E (Canis lupus familiaris) (UniProt A0A8P0P634); assay: Binding affinity to wild-type dog CENP-E assessed as ATPase activity
Sequence of Centromere protein E (Canis lupus familiaris) (A0A8P0P634 as listed by the source): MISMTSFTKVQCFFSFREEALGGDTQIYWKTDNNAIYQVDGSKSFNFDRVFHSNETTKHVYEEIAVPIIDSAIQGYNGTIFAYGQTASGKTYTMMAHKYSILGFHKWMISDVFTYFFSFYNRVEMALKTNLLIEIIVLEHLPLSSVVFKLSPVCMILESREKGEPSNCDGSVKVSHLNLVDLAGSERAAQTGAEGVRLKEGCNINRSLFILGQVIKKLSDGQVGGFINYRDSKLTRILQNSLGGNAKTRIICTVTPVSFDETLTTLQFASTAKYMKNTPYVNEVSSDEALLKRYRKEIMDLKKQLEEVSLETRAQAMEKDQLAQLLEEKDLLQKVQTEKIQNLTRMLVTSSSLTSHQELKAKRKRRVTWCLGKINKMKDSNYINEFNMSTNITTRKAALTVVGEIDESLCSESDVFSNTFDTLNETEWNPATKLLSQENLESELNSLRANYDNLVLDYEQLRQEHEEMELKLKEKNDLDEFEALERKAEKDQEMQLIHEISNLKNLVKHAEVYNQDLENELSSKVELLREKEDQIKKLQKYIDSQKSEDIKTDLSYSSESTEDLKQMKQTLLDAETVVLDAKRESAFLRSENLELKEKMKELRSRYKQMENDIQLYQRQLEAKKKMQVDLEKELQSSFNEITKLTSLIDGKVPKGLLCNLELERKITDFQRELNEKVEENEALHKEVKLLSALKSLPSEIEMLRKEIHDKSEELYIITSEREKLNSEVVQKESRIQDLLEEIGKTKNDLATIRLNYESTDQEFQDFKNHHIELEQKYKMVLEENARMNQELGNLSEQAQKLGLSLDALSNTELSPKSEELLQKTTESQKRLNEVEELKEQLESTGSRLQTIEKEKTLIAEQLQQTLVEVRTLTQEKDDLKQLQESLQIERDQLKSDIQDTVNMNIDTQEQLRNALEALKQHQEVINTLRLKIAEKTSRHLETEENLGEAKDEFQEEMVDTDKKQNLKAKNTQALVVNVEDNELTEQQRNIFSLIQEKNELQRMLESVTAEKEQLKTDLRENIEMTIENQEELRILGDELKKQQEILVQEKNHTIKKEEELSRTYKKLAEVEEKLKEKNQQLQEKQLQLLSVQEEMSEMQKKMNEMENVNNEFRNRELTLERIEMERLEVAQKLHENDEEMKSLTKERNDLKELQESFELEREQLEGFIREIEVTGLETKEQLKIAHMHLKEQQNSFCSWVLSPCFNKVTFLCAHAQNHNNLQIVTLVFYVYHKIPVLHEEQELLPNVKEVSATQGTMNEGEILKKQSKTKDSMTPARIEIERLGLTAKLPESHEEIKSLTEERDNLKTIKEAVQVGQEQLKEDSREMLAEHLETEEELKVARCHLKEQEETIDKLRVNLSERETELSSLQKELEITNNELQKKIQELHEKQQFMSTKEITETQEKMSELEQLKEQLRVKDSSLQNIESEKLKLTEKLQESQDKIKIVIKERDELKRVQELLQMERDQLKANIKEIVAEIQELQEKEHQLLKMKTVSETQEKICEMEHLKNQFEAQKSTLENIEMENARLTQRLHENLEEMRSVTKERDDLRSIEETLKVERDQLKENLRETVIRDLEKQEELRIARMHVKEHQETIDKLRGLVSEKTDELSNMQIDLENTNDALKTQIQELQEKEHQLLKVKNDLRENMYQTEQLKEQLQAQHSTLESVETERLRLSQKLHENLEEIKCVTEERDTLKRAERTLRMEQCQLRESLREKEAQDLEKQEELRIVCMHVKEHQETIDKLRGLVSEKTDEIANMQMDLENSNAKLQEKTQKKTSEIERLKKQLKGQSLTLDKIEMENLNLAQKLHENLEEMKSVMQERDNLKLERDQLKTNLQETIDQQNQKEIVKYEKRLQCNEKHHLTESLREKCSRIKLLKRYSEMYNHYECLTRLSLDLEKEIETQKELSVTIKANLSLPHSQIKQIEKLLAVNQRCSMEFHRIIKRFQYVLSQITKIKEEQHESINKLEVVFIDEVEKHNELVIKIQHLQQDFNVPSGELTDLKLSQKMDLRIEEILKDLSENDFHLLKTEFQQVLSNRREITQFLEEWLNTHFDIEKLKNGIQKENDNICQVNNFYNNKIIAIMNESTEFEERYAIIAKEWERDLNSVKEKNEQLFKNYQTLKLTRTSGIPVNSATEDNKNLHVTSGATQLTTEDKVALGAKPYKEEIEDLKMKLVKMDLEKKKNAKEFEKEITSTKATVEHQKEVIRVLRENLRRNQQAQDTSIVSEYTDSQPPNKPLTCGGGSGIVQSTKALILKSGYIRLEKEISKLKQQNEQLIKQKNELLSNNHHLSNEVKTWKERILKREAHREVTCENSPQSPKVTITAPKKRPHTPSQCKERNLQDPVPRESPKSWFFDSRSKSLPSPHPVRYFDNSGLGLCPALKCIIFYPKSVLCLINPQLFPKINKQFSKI

Homo sapiens [15] = species: Homo sapiens; assay: Binding affinity to human CENP-E T183A/K184T mutant assessed as ATPase activity
COLO 205 [16] = assay: Induction of morphological change in human COLO 205 cells xenografted in mouse assessed as appearance of mitotic figures in tumor at 125 mg/kg measured after 24 hrs of single administration by H and E staining based analysis; type: functional, organism-based
COLO 205 [17] = assay: Induction of morphological change in human COLO 205 cells xenografted in mouse assessed as appearance of scattered apoptotic bodies in tumor at 125 mg/kg measured after 24 hrs of single administration by H and E staining based analysis; type: functional, organism-based
COLO 205 [18] = assay: Effect on cell cycle distribution in human COLO 205 cells xenografted in mouse assessed as increase in ratio of 4n to 2n nuclei measured after 24 hrs of single administration by flow cytometry; type: functional, cell-based; conditions: dose <= 125.0 mg/kg
COLO 205 [19] = assay: Antitumor activity against human COLO 205 cells xenografted in mouse assessed as reduction in tumor volume administered intraperitoneally three doses daily on 2 consecutive weeks; type: functional, cell-based; conditions: dose 62.5-125 mg/kg, route ip, time 2.0 weeks
Homo sapiens [20] = species: Homo sapiens
Description: Binding affinity to human CENP-E T183A/K184T mutant assessed as catalytic constant

Homo sapiens [21] = species: Homo sapiens; remark: listed apart in the source
Description: Binding affinity to human CENP-E T183A/K184T mutant assessed as Km in presence of microtubule

Homo sapiens [22] = species: Homo sapiens; remark: listed apart in the source
Description: Binding affinity to human CENP-E T183A/K184T mutant assessed as Km in presence of ATP

[23] = target: Centromere-associated protein E (Homo sapiens) (UniProt Q02224)
Description: Binding affinity to C-terminal 6-his-tagged CENP-E (2 to 340 residues)(unknown origin) expressed in Escherichia coli BL21(DE3) assessed as compound dissociation by measuring t1/2

[24] = target: Centromere-associated protein E (Homo sapiens) (UniProt Q02224); assay: Competitive-like binding affinity to C-terminal 6-his-tagged CENP-E (2 to 340 residues)(unknown origin) expressed in Escherichia coli BL21(DE3) in presence of ATP
[25] = target: Centromere-associated protein E (Homo sapiens) (UniProt Q02224); assay: Binding affinity to C-terminal 6-his-tagged CENP-E (2 to 340 residues)(unknown origin) expressed in Escherichia coli BL21(DE3) photo-exposed for 30 mins by LC-MS analysis

Sequence of Centromere-associated protein E (Homo sapiens) (Q02224 whole entry, the tested form may be a part): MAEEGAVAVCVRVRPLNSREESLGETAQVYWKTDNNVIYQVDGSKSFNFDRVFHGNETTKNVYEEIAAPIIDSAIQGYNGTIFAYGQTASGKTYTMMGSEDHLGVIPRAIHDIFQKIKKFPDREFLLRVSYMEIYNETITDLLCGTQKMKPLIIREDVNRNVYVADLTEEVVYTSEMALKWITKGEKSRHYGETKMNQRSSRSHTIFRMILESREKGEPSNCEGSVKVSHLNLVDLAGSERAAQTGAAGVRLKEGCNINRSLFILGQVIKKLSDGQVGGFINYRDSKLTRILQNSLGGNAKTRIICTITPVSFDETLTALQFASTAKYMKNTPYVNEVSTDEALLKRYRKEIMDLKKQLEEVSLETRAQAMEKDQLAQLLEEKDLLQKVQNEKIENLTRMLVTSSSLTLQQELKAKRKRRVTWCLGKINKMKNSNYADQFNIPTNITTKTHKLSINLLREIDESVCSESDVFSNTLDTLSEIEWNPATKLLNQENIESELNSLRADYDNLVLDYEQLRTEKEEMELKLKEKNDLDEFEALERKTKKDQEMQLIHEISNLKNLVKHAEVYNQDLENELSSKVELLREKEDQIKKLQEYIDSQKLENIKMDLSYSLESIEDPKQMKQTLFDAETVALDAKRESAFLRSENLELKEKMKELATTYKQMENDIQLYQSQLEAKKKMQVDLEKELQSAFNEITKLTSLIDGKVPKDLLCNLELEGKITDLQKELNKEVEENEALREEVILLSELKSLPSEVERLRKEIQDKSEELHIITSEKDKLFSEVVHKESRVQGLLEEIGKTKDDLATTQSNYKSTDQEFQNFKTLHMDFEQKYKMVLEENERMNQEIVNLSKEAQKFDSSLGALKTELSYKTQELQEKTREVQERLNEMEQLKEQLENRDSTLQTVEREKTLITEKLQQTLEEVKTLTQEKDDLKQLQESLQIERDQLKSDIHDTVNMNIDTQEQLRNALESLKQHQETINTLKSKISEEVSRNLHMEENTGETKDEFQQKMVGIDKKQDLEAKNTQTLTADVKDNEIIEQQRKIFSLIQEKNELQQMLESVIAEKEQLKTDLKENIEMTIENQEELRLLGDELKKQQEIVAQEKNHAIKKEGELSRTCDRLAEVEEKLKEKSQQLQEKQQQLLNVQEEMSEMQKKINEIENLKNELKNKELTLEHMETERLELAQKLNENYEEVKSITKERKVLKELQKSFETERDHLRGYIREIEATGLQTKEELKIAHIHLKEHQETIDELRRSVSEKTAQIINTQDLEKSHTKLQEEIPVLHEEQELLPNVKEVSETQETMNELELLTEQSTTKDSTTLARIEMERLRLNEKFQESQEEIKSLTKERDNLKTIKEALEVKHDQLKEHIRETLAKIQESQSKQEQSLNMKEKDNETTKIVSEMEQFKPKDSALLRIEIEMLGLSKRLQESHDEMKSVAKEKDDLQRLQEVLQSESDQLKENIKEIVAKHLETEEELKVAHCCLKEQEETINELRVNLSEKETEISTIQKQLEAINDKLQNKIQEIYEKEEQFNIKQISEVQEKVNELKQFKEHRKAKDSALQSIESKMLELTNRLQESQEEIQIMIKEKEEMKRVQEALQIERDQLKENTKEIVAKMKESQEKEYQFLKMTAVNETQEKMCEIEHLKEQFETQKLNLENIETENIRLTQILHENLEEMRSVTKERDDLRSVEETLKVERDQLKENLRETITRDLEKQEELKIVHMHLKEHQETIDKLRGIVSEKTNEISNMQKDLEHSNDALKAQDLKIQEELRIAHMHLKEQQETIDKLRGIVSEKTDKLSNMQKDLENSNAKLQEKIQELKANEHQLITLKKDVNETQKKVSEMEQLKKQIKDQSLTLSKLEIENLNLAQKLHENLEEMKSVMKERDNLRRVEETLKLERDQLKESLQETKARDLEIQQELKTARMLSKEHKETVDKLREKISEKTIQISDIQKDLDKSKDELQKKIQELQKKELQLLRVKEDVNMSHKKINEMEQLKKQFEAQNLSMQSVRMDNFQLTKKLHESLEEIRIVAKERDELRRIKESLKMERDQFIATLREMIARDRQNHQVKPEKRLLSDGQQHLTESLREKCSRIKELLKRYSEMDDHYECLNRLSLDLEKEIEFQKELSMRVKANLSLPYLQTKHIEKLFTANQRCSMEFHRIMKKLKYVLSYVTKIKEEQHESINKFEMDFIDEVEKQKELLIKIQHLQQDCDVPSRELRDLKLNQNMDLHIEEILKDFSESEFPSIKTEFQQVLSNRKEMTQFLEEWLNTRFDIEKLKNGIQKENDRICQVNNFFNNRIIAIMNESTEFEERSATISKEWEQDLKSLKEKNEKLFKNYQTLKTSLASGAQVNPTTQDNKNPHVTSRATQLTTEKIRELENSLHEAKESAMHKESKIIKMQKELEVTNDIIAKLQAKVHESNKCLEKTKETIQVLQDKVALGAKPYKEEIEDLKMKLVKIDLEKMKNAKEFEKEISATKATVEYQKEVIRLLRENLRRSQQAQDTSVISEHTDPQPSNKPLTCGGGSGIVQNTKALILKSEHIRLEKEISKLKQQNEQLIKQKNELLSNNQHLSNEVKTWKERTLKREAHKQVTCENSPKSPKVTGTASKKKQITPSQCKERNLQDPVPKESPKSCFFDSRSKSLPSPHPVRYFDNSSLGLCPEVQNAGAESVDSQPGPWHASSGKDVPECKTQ

Q: With Cc1cccn2cc(-c3ccc(C[C@@H](CCO)NC(=O)c4ccc(OC(C)C)c(C#N)c4)cc3)nc12 as the compound, how does the alphaKi [1] read?
A: Its alphaKi is 0.25 nM.

Q: And the Activity (HCC1954 [2])?
A: Its Activity is “Active”.

Q: And the inhibition [3]?
A: The inhibition was “Active”.

Q: What about the inhibition [4] of the same compound?
A: The inhibition was “Active”.

Q: What about the inhibition [5] of the same compound?
A: Its inhibition is “Active”.

Q: What about the Activity (HCC1954 [6]) of the same compound?
A: The Activity was “Active”.

Q: And the Activity (SK-OV-3)?
A: The Activity was “Active”.

Q: And the inhibition [7]?
A: The inhibition was “Active”.

Q: With “Centromere-associated protein E (Mus musculus), Q6RT24” as the compound, how does the kcat [8] read?
A: The kcat was 10.1 s⁻¹.

Q: And the Km [9]?
A: Its Km is 0.55 µM.

Q: What about the Km [10] of the same compound?
A: The Km was 25 µM.

Q: For “Centromere protein E (Canis lupus familiaris), A0A8P0P634”, which kcat [11] is on record?
A: The kcat was 11.1 s⁻¹.

Q: And the Km [12]?
A: Its Km is 0.38 µM.

Q: And the Km [13]?
A: The Km was 34 µM.

Q: For CC(C)Oc1ccc(C(=O)N[C@H](CNC(=O)CN(C)C)Cc2ccc(-c3cn4cccc([C@H](C)O)c4n3)cc2)cc1Cl, which Activity [14] is on record?
A: Its Activity is 0.32 s⁻¹.

Q: And the Activity (Homo sapiens [15])?
A: Its Activity is 0.06 s⁻¹.

Q: What about the Activity (COLO 205 [16]) of the same compound?
A: The Activity was “Active”.

Q: What about the Activity (COLO 205 [17]) of the same compound?
A: Its Activity is “Active”.

Q: And the Activity (COLO 205 [18])?
A: Its Activity is “Dose-Dependent Effect”.

Q: What about the Activity (COLO 205 [19]) of the same compound?
A: The Activity was “Dose-Dependent Effect”.

Q: What about the kcat (Homo sapiens [20]) of the same compound?
A: The kcat was 12.1 s⁻¹.

Q: What about the Km (Homo sapiens [21]) of the same compound?
A: Its Km is 1.81 µM.

Q: And the Km (Homo sapiens [22])?
A: Its Km is 20 µM.

Q: What about the T1/2 [23] of the same compound?
A: Its T1/2 is 10.2 h.

Q: CNC(=O)C(Cc1ccc(C(=O)c2ccccc2)cc1)NC(=O)c1ccc(OC(C)C)c(Cl)c1 (stereo unspecified) was tested. Which alphaKi [24] did it give?
A: Its alphaKi is 8 nM.

Q: What about the Activity [25] of the same compound?
A: Its Activity is “Active”.

— ChEMBL document CHEMBL5705890, “Antitumor activity of an allosteric inhibitor of centromere-associated protein-E” (Proc Natl Acad Sci U S A, 2010)
